Earlier results on six compounds are cited in patent US8569299B2, “Prolylcarboxypeptidase inhibitors” (Merck Sharp & Dohme Corp, priority 2010, dated 2013).

Where two headings read alike, the source gives them in different places. Where no end group is shown, it is not given here.

For series [1] the following is noted: intracerebroventricular, rats.
For series [2] the following is noted: systemic administration, obese leptin deficient mice.
For series [3] the following is noted: in vivo.
For series [4] the following is noted: overnight fasted animals, 2.5 ug.

t-butyl carbamate-prolyl prolinal [BPP]: the overnight food intake entry in series [1] and in series [2] was “suppression of overnight food intake” each time.

For `CC(C)(N)Cc1ccccc1` [phentermine], the “weight loss of body weight for drug compared to placebo” value (“weight loss … compared to placebo” for short) in series [3] was 5%-10%.

`CC(C)CC(N(C)C)C1(c2ccc(Cl)cc2)CCC1` (stereo not shown) [sibutramine]: the “weight loss … compared to placebo” value in series [3] is reported as 5%-10%.

Turning to `CCCCCCCCCCC[C@@H](C[C@@H]1OC(=O)[C@H]1CCCCCC)OC(=O)[C@H](CC(C)C)NC=O` [orlistat], in series [3], the “weight loss … compared to placebo” value was 5%-10%. In the case of “alpha-melanocyte-stimulating hormone (SYSMEHFRWGKPV; ends and bridges not checked; UniProt P01189 138-150, looked up) [α-MSH1-13, peptide hormone derived from POMC, substrate of PRCP]”, in series [4], the “reduction in food intake relative to control animals” value is given as 40%. For `CCN[C@@H](C)Cc1cccc(C(F)(F)F)c1` [dexfenfluramine], the “weight loss … compared to placebo” value in series [3] is 5%-10%.
